# PubChem BioAssay (NCI)
#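 In this assay, cells in 96-well plates receive the compound at five concentrations for 48 hours. Endpoints are linearly interpolated between the surrounding concentrations. At the TGI there is no net growth.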
# Tests used:
# Assay in all cases: NCI tumour cell line growth inhibition, 48 h
# 786-0 renal = test system: 786-0 renal
# A498 renal = test system: A498 renal
# A549 NSCLC = test system: A549 NSCLC
# ACHN renal = test system: ACHN renal
# BT-549 breast = test system: BT-549 breast
# CAKI-1 renal = test system: CAKI-1 renal
# CCRF-CEM leukemia = test system: CCRF-CEM leukemia
# COLO 205 colon = test system: COLO 205 colon
# DLD-1 colon = test system: DLD-1 colon
# DMS 114 small cell lung = test system: DMS 114 small cell lung
# DMS 273 small cell lung = test system: DMS 273 small cell lung
# DU-145 prostate = test system: DU-145 prostate
# EKVX NSCLC = test system: EKVX NSCLC
# HCC-2998 colon = test system: HCC-2998 colon
# HCT-116 colon = test system: HCT-116 colon
# HCT-15 colon = test system: HCT-15 colon
# HL-60(TB) leukemia = test system: HL-60(TB) leukemia
# HOP-18 NSCLC = test system: HOP-18 NSCLC
# HOP-62 NSCLC = test system: HOP-62 NSCLC
# HOP-92 NSCLC = test system: HOP-92 NSCLC
# HS 578T breast = test system: HS 578T breast
# HT29 colon = test system: HT29 colon
# IGROV1 ovarian = test system: IGROV1 ovarian
# K-562 leukemia = test system: K-562 leukemia
# KM12 colon = test system: KM12 colon
# KM20L2 colon = test system: KM20L2 colon
# LOX IMVI melanoma = test system: LOX IMVI melanoma
# LXFL 529 NSCLC = test system: LXFL 529 NSCLC
# M14 melanoma = test system: M14 melanoma
# M19-MEL melanoma = test system: M19-MEL melanoma
# MALME-3M melanoma = test system: MALME-3M melanoma
# MCF7 breast = test system: MCF7 breast
# MDA-MB-231 breast = test system: MDA-MB-231 breast
# MDA-MB-435 = test system: MDA-MB-435
# MDA-N = test system: MDA-N
# MOLT-4 leukemia = test system: MOLT-4 leukemia
# NCI-H226 lung = test system: NCI-H226 lung
# NCI-H23 lung = test system: NCI-H23 lung
# NCI-H460 lung = test system: NCI-H460 lung
# NCI-H522 lung = test system: NCI-H522 lung
# NCI/ADR-RES ovarian = test system: NCI/ADR-RES ovarian
# OVCAR-3 ovarian = test system: OVCAR-3 ovarian
# OVCAR-4 ovarian = test system: OVCAR-4 ovarian
# OVCAR-5 ovarian = test system: OVCAR-5 ovarian
# OVCAR-8 ovarian = test system: OVCAR-8 ovarian
# P388 leukemia = test system: P388 leukemia
# P388/ADR leukemia = test system: P388/ADR leukemia
# PC-3 prostate = test system: PC-3 prostate
# RPMI-8226 leukemia = test system: RPMI-8226 leukemia
# RXF 393 renal = test system: RXF 393 renal
# RXF-631 renal = test system: RXF-631 renal
# SF-268 CNS = test system: SF-268 CNS
# SF-295 CNS = test system: SF-295 CNS
# SF-539 CNS = test system: SF-539 CNS
# SK-MEL-2 melanoma = test system: SK-MEL-2 melanoma
# SK-MEL-28 melanoma = test system: SK-MEL-28 melanoma
# SK-MEL-5 melanoma = test system: SK-MEL-5 melanoma
# SK-OV-3 ovarian = test system: SK-OV-3 ovarian
# SN12C renal = test system: SN12C renal
# SN12K1 renal = test system: SN12K1 renal
# SNB-19 CNS = test system: SNB-19 CNS
# SNB-75 CNS = test system: SNB-75 CNS
# SNB-78 CNS = test system: SNB-78 CNS
# SR leukemia = test system: SR leukemia
# SW-620 colon = test system: SW-620 colon
# T-47D breast = test system: T-47D breast
# TK-10 renal = test system: TK-10 renal
# U251 CNS = test system: U251 CNS
# UACC-257 melanoma = test system: UACC-257 melanoma
# UACC-62 melanoma = test system: UACC-62 melanoma
# UO-31 renal = test system: UO-31 renal
# XF 498 CNS = test system: XF 498 CNS
structure (smiles),measurement,setting,value
Clc1ccc(C(c2ccccc2Cl)C(Cl)Cl)cc1 (configuration not stated),TGI,786-0 renal,36.7 µM
same,TGI,A498 renal,38.6 µM
same,TGI,A549 NSCLC,35.4 µM
same,TGI,ACHN renal,38.8 µM
same,TGI,BT-549 breast,30.2 µM
same,TGI,CAKI-1 renal,31.8 µM
same,TGI,CCRF-CEM leukemia,47.1 µM
same,TGI,COLO 205 colon,38.9 µM
same,TGI,DLD-1 colon,38.6 µM
same,TGI,DMS 114 small cell lung,36.7 µM
same,TGI,DMS 273 small cell lung,36 µM
same,TGI,DU-145 prostate,34.3 µM
same,TGI,EKVX NSCLC,32.6 µM
same,TGI,HCC-2998 colon,29.4 µM
same,TGI,HCT-116 colon,31.4 µM
same,TGI,HCT-15 colon,36.5 µM
same,TGI,HL-60(TB) leukemia,51.5 µM
same,TGI,HOP-18 NSCLC,21.6 µM
same,TGI,HOP-62 NSCLC,39.7 µM
same,TGI,HOP-92 NSCLC,32.1 µM
same,TGI,HS 578T breast,37.1 µM
same,TGI,HT29 colon,33.7 µM
same,TGI,IGROV1 ovarian,30.7 µM
same,TGI,K-562 leukemia,44.2 µM
same,TGI,KM12 colon,37.1 µM
same,TGI,KM20L2 colon,33.8 µM
same,TGI,LOX IMVI melanoma,40.2 µM
same,TGI,LXFL 529 NSCLC,38.2 µM
same,TGI,M14 melanoma,37.1 µM
same,TGI,M19-MEL melanoma,39 µM
same,TGI,MALME-3M melanoma,33.5 µM
same,TGI,MCF7 breast,37.8 µM
same,TGI,MDA-MB-231 breast,35.2 µM
same,TGI,MDA-MB-435,32 µM
same,TGI,MDA-N,35.1 µM
same,TGI,MOLT-4 leukemia,41.1 µM
same,TGI,NCI-H226 lung,39.1 µM
same,TGI,NCI-H23 lung,37.7 µM
same,TGI,NCI-H460 lung,39.3 µM
same,TGI,NCI-H522 lung,34.3 µM
same,TGI,NCI/ADR-RES ovarian,37.1 µM
same,TGI,OVCAR-3 ovarian,34.3 µM
same,TGI,OVCAR-4 ovarian,35.7 µM
same,TGI,OVCAR-5 ovarian,33.9 µM
same,TGI,OVCAR-8 ovarian,40 µM
same,TGI,P388 leukemia,38.2 µM
same,TGI,P388/ADR leukemia,44.2 µM
same,TGI,PC-3 prostate,35.5 µM
same,TGI,RPMI-8226 leukemia,49 µM
same,TGI,RXF 393 renal,30.9 µM
same,TGI,RXF-631 renal,35.8 µM
same,TGI,SF-268 CNS,37.6 µM
same,TGI,SF-295 CNS,35.6 µM
same,TGI,SF-539 CNS,36.5 µM
same,TGI,SK-MEL-2 melanoma,35.8 µM
same,TGI,SK-MEL-28 melanoma,36.7 µM
same,TGI,SK-MEL-5 melanoma,36.1 µM
same,TGI,SK-OV-3 ovarian,39.7 µM
same,TGI,SN12C renal,37 µM
same,TGI,SN12K1 renal,36.9 µM
same,TGI,SNB-19 CNS,37.6 µM
same,TGI,SNB-75 CNS,35.1 µM
same,TGI,SNB-78 CNS,41.5 µM
same,TGI,SR leukemia,46.5 µM
same,TGI,SW-620 colon,39.2 µM
same,TGI,T-47D breast,33.3 µM
same,TGI,TK-10 renal,37.5 µM
same,TGI,U251 CNS,36.8 µM
same,TGI,UACC-257 melanoma,37.2 µM
same,TGI,UACC-62 melanoma,34.4 µM
same,TGI,UO-31 renal,37.4 µM
same,TGI,XF 498 CNS,37.2 µM
